# Reference: US20230192717A1, “COMPOSITIONS AND METHODS OF MODULATING SHORT-CHAIN DEHYDROGENASE ACTIVITY” (RODEO THERAPEUTICS CORPORATION, priority 2020, published 2023)
# Target: T1, recombinant 15-PGDH (Homo sapiens, UniProt P15428)
# T1 sequence (P15428 1-266): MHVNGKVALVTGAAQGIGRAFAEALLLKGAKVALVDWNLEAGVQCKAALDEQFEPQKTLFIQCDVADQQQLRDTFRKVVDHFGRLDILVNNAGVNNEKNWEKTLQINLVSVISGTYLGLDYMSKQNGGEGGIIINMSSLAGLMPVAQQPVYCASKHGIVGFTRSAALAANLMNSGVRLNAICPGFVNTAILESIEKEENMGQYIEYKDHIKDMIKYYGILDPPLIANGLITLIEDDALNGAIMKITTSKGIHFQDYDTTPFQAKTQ
# Experiment: inhibition of enzymatic activity of recombinant 15-PGDH in vitro
# Assay type: biochemical
# Settings: recombinant human 15-PGDH
# From the text: The Recombinant 15-PGDH is human unless otherwise specified.
row,Compound,IC50 [nM]
1,"COCC[S+]([O-])c1sc2nc(-c3ccc4nccnc4c3)cc(C(C)C)c2c1N (single isomer, unassigned) [Compound 25, 2-[2-methoxyethanesulfinyl]-4-(propan-2-yl)-6-(quinoxalin-6-yl)thieno[2,3-b]pyridin-3-amine]",> 10
2,"COCC[S@+]([O-])c1sc2nc(-c3cnc(N)nc3)cc(C(C)C)c2c1N (stereo in doubt) [Compound 19, 5-{3-amino-2-[2-methoxyethanesulfinyl]-4-(propan-2-yl)thieno[2,3-b]pyridin-6-yl}pyrimidin-2-amine]",> 10
3,"CNc1ncc(-c2cc(C(C)C)c3c(N)c([S+]([O-])CCOC)sc3n2)cn1 (stereo in doubt) [Compound 23, 5-{3-amino-2-[(R)-2-methoxyethanesulfinyl]-4-(propan-2-yl)thieno[2,3-b]pyridin-6-yl}-N-methylpyrimidin-2-amine]",> 10
4,"Cn1nccc1-c1cc(-c2cnc3ncccc3c2)nc2sc([S@@+]([O-])C3CCC3)c(N)c12 (stereo in doubt) [Compound 27, 2-(cyclobutanesulfinyl)-4-(1-methyl-1H-pyrazol-5-yl)-6-(1,8-naphthyridin-3-yl)thieno[2,3-b]pyridin-3-amine]",> 10
5,"Cn1nccc1-c1cc(-c2cnc3ncccn23)nc2sc([S@+]([O-])C3CCC3)c(N)c12 [Compound 5, 2-[(R)-cyclobutanesulfinyl]-6-{imidazo[1,2-a]pyrimidin-3-yl}-4-(1-methyl-1H-pyrazol-5-yl)thieno[2,3-b]pyridin-3-amine]",2.5 to 10
6,CC(C)c1cc(-c2cnc(NCCO)nc2)nc2sc([S@@+]([O-])C3CCC3)c(N)c12 [Compound 8],> 10
7,"COCC[S@@+]([O-])c1sc2nc(-c3cnc4cnccn34)cc(C3CCC3)c2c1N [Compound 11, (R)-4-cyclobutyl-6-(imidazo[1,2-a]pyrazin-3-yl)-2-((2-methoxyethyl)sulfinyl)thieno[2,3-b]pyridin-3-amine]",< 2.5
8,"Cn1nccc1-c1cc(-c2cnc3ncccc3c2)nc2sc([S+]([O-])C3CCC3)c(N)c12 (centres unmarked) [Compound 12, 2-(cyclobutanesulfinyl)-4-(1-methyl-1H-pyrazol-5-yl)-6-(1,8-naphthyridin-3-yl)thieno[2,3-b]pyridin-3-amine]",< 2.5
9,"COCC[S@@+]([O-])c1sc2nc(-c3cnc4cnccn34)cc(-c3ccnn3C)c2c1N [Compound 13, (R)-6-(imidazo[1,2-a]pyrazin-3-yl)-2-((2-methoxyethyl)sulfinyl)-4-(1-methyl-1H-pyrazol-5-yl)thieno[2,3-b]pyridin-3-amine]",< 2.5
10,"Cn1cc2cc(-c3cc(C4CC5(COC5)C4)c4c(N)c([S@+]([O-])C5CCC5)sc4n3)cnc2n1 [Compound 14, (R)-2-(cyclobutylsulfinyl)-6-(2-methyl-2H-pyrazolo[3,4-b]pyridin-5-yl)-4-(2-oxaspiro[3.3]heptan-6-yl)thieno[2,3-b]pyridin-3-amine]",< 2.5
11,"COCC[S@@+]([O-])c1sc2nc(-c3ccc4ncncc4c3)cc(-c3ccnn3C)c2c1N [Compound 15, 2-[(R)-2-methoxyethanesulfinyl]-4-(1-methyl-1H-pyrazol-5-yl)-6-(quinazolin-6-yl)thieno[2,3-b]pyridin-3-amine]",< 2.5
12,"COCC[S@@+]([O-])c1sc2nc(-c3ccc4cncnc4c3)cc(-c3ccnn3C)c2c1N [Compound 16, 2-[(R)-2-methoxyethanesulfinyl]-4-(1-methyl-1H-pyrazol-5-yl)-6-(quinazolin-7-yl)thieno[2,3-b]pyridin-3-amine]",< 2.5
13,"COCC[S+]([O-])c1sc2nc(-c3cnc4nn(C)cc4c3)nc(C(C)C)c2c1N (centres unmarked) [Compound 17, 4-isopropyl-6-((2-methoxyethyl)sulfinyl)-2-(2-methyl-2H-pyrazolo[3,4-b]pyridin-5-yl)thieno[2,3-d]pyrimidin-5-amine]",< 2.5
14,CC(C)c1cc(-c2cnc(N)nc2)nc2sc([S@+]([O-])C3CCC3)c(N)c12 [Compound 20],< 2.5
15,CC(C)c1cc(-c2cnc(N)nc2)nc2sc([S@@+]([O-])C3CCC3)c(N)c12 [Compound 21],> 10
16,"CNc1ncc(-c2cc(C(C)C)c3c(N)c([S@+]([O-])CCOC)sc3n2)cn1 [Compound 22, 5-{3-amino-2-[(R)-2-methoxyethanesulfinyl]-4-(propan-2-yl)thieno[2,3-b]pyridin-6-yl}-N-methylpyrimidin-2-amine]",< 2.5
17,"COCC[S@@+]([O-])c1sc2nc(-c3cnc4nn(C)cc4c3)cc(C(C)(C)C)c2c1N [Compound 28, 4-tert-butyl-2-[(R)-2-methoxyethanesulfinyl]-6-{2-methyl-2H-pyrazolo[3,4-b]pyridin-5-yl}thieno[2,3-b]pyridin-3-amine]",< 2.5
18,"Cn1nccc1-c1cc(-c2cnc3c(c2)CNCC3)nc2sc([S+]([O-])C3CCC3)c(N)c12 (centres unmarked) [Compound 31, 2-(cyclobutanesulfinyl)-4-(1-methyl-1H-pyrazol-5-yl)-6-(5,6,7,8-tetrahydro-1,6-naphthyridin-3-yl)thieno[2,3-b]pyridin-3-amine]",2.5 to 10
19,"COCC[S+]([O-])c1sc2nc(-c3cnc4c(c3)OCCN4)cc(-c3ccnn3C)c2c1N (centres unmarked) [Compound 32, 2-(2-methoxyethanesulfinyl)-4-(1-methyl-1H-pyrazol-5-yl)-6-{2H,3H,4H-pyrido[3,2-b][1,4]oxazin-7-yl}thieno[2,3-b]pyridin-3-amine]",< 2.5
20,"CC(C)c1cc(-c2cc(=O)n(C)cn2)nc2sc([S@+]([O-])C3CCC3)c(N)c12 [Compound 33, 6-{3-amino-2-[(R)-cyclobutanesulfinyl]-4-(propan-2-yl)thieno[2,3-b]pyridin-6-yl}-3-methyl-3,4-dihydropyrimidin-4-one]",< 2.5
21,"COCC[S@@+]([O-])c1sc2nc(-c3cc(=O)n(C)cn3)cc(C(C)C)c2c1N [Compound 34, 6-{3-amino-2-[(R)-2-methoxyethanesulfinyl]-4-(propan-2-yl)thieno[2,3-b]pyridin-6-yl}-3-methyl-3,4-dihydropyrimidin-4-one]",< 2.5
22,"CC(C)(C)c1cc(-c2cnc(N)nc2)nc2sc([S@+]([O-])C3CCC3)c(N)c12 [Compound 35, 5-{3-amino-4-tert-butyl-2-[(R)-cyclobutanesulfinyl]thieno[2,3-b]pyridin-6-yl}pyrimidin-2-amine]",< 2.5
23,"COCC[S@@+]([O-])c1sc2nc(-c3cc(=O)n(C)cn3)cc(-c3ccccc3)c2c1N [Compound A, reference compound]",< 2.5

# The remaining lines, values ahead:
row,IC50 [nM],Compound
1,< 2.5,"COCC[S@@+]([O-])c1sc2nc(-c3cnc(N)nc3)cc(C(C)C)c2c1N (stereo in doubt) [Compound 18, 5-{3-amino-2-[2-methoxyethanesulfinyl]-4-(propan-2-yl)thieno[2,3-b]pyridin-6-yl}pyrimidin-2-amine]"
2,< 2.5,"COCC[S@@+]([O-])c1sc2nc(-c3ccc4nccnc4c3)cc(C(C)C)c2c1N (stereo in doubt) [Compound 24, 2-[2-methoxyethanesulfinyl]-4-(propan-2-yl)-6-(quinoxalin-6-yl)thieno[2,3-b]pyridin-3-amine]"
3,< 2.5,"Cn1nccc1-c1cc(-c2cnc3ncccc3c2)nc2sc([S@+]([O-])C3CCC3)c(N)c12 (stereo in doubt) [Compound 26, 2-(cyclobutanesulfinyl)-4-(1-methyl-1H-pyrazol-5-yl)-6-(1,8-naphthyridin-3-yl)thieno[2,3-b]pyridin-3-amine]"
4,< 2.5,"Cn1nccc1-c1cc(-c2ccc3nccnc3c2)nc2sc([S@+]([O-])C3CCC3)c(N)c12 [Compound 1, (R)-2-(cyclobutylsulfinyl)-4-(1-methyl-1H-pyrazol-5-yl)-6-(quinoxalin-6-yl)thieno[2,3-b]pyridin-3-amine]"
5,< 2.5,"Cn1nccc1-c1cc(-c2ccc3cncnc3c2)nc2sc([S@+]([O-])C3CCC3)c(N)c12 [Compound 2, 2-[(R)-cyclobutanesulfinyl]-4-(1-methyl-1H-pyrazol-5-yl)-6-(quinazolin-7-yl)thieno[2,3-b]pyridin-3-amine]"
6,< 2.5,"COCC[S+]([O-])c1sc2nc(-c3cnc4cccnc4c3)cc(-c3ccnn3C)c2c1N (centres unmarked) [Compound 3, 2-(2-methoxyethanesulfinyl)-4-(1-methyl-1H-pyrazol-5-yl)-6-(1,5-naphthyridin-3-yl)thieno[2,3-b]pyridin-3-amine]"
7,< 2.5,"COCC[S@@+]([O-])c1sc2nc(-c3ccc4nccnc4c3)cc(-c3ccnn3C)c2c1N [Compound 4, 2-[(R)-2-methoxyethanesulfinyl]-4-(1-methyl-1H-pyrazol-5-yl)-6-(quinoxalin-6-yl)thieno[2,3-b]pyridin-3-amine]"
8,< 2.5,"COCC[S+]([O-])c1sc2nc(-c3cnc4ncccc4c3)cc(C3CCC3)c2c1N (centres unmarked) [Compound 6, 4-cyclobutyl-2-(2-methoxyethanesulfinyl)-6-(1,8-naphthyridin-3-yl)thieno[2,3-b]pyridin-3-amine]"
9,< 2.5,"COCC[S+]([O-])c1sc2nc(-c3cnc4nccnc4c3)cc(C3CCC3)c2c1N (centres unmarked) [Compound 7, 4-cyclobutyl-2-(2-methoxyethanesulfinyl)-6-{pyrido[2,3-b]pyrazin-7-yl}thieno[2,3-b]pyridin-3-amine]"
10,< 2.5,"Cn1nccc1-c1cc(-c2ccc3ncncc3c2)nc2sc([S@+]([O-])C3CCC3)c(N)c12 [Compound 10, 2-[(R)-cyclobutanesulfinyl]-4-(1-methyl-1H-pyrazol-5-yl)-6-(quinazolin-6-yl)thieno[2,3-b]pyridin-3-amine]"

# System: not listed separately
# Experiment: kinetic aqueous solubility in pH 7 citrate buffer
# Assay type: physicochemical
# Settings: kinetic from dmso stock, pH 7 citrate buffer solution, read-out: Kinetic Aq solubility (μM pH 7)
row,solubility kinetic [µM],Compound
1,187,"COCC[S+]([O-])c1sc2nc(-c3cnc4nn(C)cc4c3)nc(C(C)C)c2c1N (centres unmarked) [Compound 17, 4-isopropyl-6-((2-methoxyethyl)sulfinyl)-2-(2-methyl-2H-pyrazolo[3,4-b]pyridin-5-yl)thieno[2,3-d]pyrimidin-5-amine]"
2,64,"COCC[S@@+]([O-])c1sc2nc(-c3cc(=O)n(C)cn3)cc(-c3ccccc3)c2c1N [Compound A, reference compound]"
